Measured values: patent US5157041A, “Amino acid derivatives” (Hoffmann-La Roche Inc., priority 1988, dated 1992)

Target: T1, HIV protease (Human immunodeficiency virus type 1 group M subtype B, UniProt P04585)
T1 construct: HIV protease was expressed in E. coli; made in house; host or cells: E. coli
Experiment: biochemical
Conditions: partially purified HIV protease expressed in E. coli; substrate succinyl-Ser-Leu-Asn-Tyr-Pro-Ile isobutylamide; citrate buffer pH 5.5; 37° C.; read-out: I50 (concentration of test compound required to give 50% inhibition)
Description: HIV protease was expressed in E. coli and partially purified from soluble extracts of the bacterium by ammonium sulphate fractionation (0-30%). Protease activity was assayed using the protected hexapeptide succinyl-Ser-Leu-Asn-Tyr-Pro-Ile isobutylamide as the substrate. Cleavage of the substrate was quantified by measuring the production of H-Pro-Ile isobutylamide by the spectrophotometric assay of N-terminal proline.
1.25 mM of substrate were dissolved in 125 mM of citrate buffer (pH 5.5) containing 0.125 mg/ml of Tween 20. 10 μl of a solution of various concentrations of the test compound (dissolved in methanol or […]) and 10 μl of protease were added to 80 μl of the above buffered substrate. Digestion was carried out at 37° C. for a fixed period of time and was terminated by the addition of 1 ml of colour reagent [30 μg/ml of isatin and 1.5 mg/ml of 2-(4-chlorobenzoyl)benzoicacid in 10% acetone in ethanol (vol./vol.)]. The solution was heated in a water bath and then the pigmented residues were re-dissolved in 1 ml of 1% pyrogallol in 33% water in acetone (wt./vol./vol.). The optical density of the solution was measured spectrophotometrically at 599 nm.

SMILES | IC50 [nM]
CC(C)CNC(=O)[C@@H]1CCCN1CC(O)[C@H](Cc1ccccc1)NC(=O)[C@H](CC(N)=O)NC(=O)OCc1ccccc1 (single isomer, unassigned) [Compound G, N^2-[3(S)-[[N-(benzyloxycarbonyl)-L-asparaginyl]amino]-2(R or S)-hydroxy-4-phenylbutyl]-N^1-isobutyl-L-prolinamide] | 80
CC[C@H](C)[C@H](NC(=O)[C@@H]1CCCN1CC(O)[C@H](Cc1ccccc1)NC(=O)[C@H](CC(N)=O)NC(=O)OCc1ccccc1)C(=O)NCC(C)C (single isomer, unassigned) [Compound D] | 130
CC(C)(C)NC(=O)C1Cc2ccccc2CN1C[C@@H](O)[C@H](Cc1ccccc1)NC(=O)[C@H](CC(N)=O)NC(=O)OCc1ccccc1 (mixture of isomers) [Compound I, 2-[3(S)-[[N-(benzyloxycarbonyl)-L-asparaginyl]amino]-2(R)-hydroxy-4-phenylbutyl]-N-tert.butyl-1,2,3,4-tetrahydro-3(R,S)-isoquinolinecarboxamide] | 85
CC[C@H](C)[C@H](NC(=O)[C@@H]1CCCN1CC(O)[C@H](Cc1ccccc1)NC(=O)[C@H](CC(N)=O)NC(=O)[C@H](CC(C)C)NC(=O)OCc1ccccc1)C(=O)NCC(C)C (mixture of isomers) [Compound E, N^2-[N-[3(S)-[[N-[N-(benzyloxycarbonyl)-L-leucyl]-L-asparaginyl]amino]-2(R and S)-hydroxy-4-phenylbutyl]-L-prolyl]-N^1-isobutyl-L-isoleucinamide] | 750
CC(C)(C)OC(=O)[C@@H]1CCCN1CC(=O)[C@H](Cc1ccccc1)NC(=O)[C@H](CC(N)=O)NC(=O)OCc1ccccc1 [Compound A, N-[N-[[N-(benzyloxycarbonyl)-L-asparaginyl]-L-phenylalanyl]methyl]-L-proline tert.butyl ester] | 870
CC(C)(C)OC(=O)[C@@H]1CCCN1C[C@@H](O)[C@H](Cc1ccccc1)NC(=O)[C@H](CC(N)=O)NC(=O)c1ccc2ccccc2c1 [Compound H, N-[2(R)-hydroxy-3(S)-[[N-(2-naphthoyl)-L-asparaginyl]amino]-4-phenylbutyl]-L-proline tert.butyl ester] | 10
CC(C)CCNC(=O)[C@@H]1CCCN1CC(O)[C@H](Cc1ccccc1)NC(=O)[C@H](CC(N)=O)NC(=O)OCc1ccccc1 (single isomer, unassigned) [Compound F] | 750

Same assay, conditions: read-out: I50 (concentration of test compound required to give 50% inhibition)

SMILES | IC50 [nM]
CC(C)(C)OC(=O)[C@@H]1CCCN1C[C@@H](O)[C@H](Cc1ccccc1)NC(=O)[C@H](CC(N)=O)NC(=O)OCc1ccccc1 [Compound B, N-[3(S)-[[N-(benzyloxycarbonyl)-L-asparaginyl]amino]-2(R)-hydroxy-4-phenylbutyl]-L-proline tert.butyl ester] | 150
CC(C)(C)OC(=O)[C@@H]1CCCN1C[C@H](O)[C@H](Cc1ccccc1)NC(=O)[C@H](CC(N)=O)NC(=O)OCc1ccccc1 [Compound C, N-[3(S)-[[N-(benzyloxycarbonyl)-L-asparaginyl]amino]-2(S)-hydroxy-4-phenylbutyl]-L-proline tert.butyl ester] | 300
